Structures can show the parent of a compound that is named as a salt. One block for each compound: values may come before it.
Experiments:
[1] = test system: C. freundii AmpC, TEM-1, CMY65; experiment: MIC, CLSI broth microdilution, beta-lactam with or without BLI; format: cell-based; details: for MIC: Citrobacter freundii, read-out: MIC of beta-lactam alone; for MIC / MIC of beta-lactam alone: no BLI
Procedure: (§1) The minimal inhibitory concentration (MIC) values against each organism and drug combination were determined using the Clinical and Laboratory Standards Institute guidelines (CLSI) broth microdilution methodology (CLSI M07-A10). The recommended quality control (QC) bacterial strains E. coli ATCC 25922, E. coli ATCC 35218 and Klebsiella pneumoniae ATCC 700603 were incorporated into each test according to the CLSI guidelines to assure that there was no variation between test dates (CLSI M100-S25). The MICs of these QC strains were within QC range on all test occasions. Drug containing plates were made using the master plate method. A cefpodoxime solution was prepared to 20× concentration and 2-fold serial dilutions were made in cation adjusted Mueller-Hinton Broth. Equal volumes of 20× examplar compounds at a fixed concentration were added to the master plate. 10 uL was stamped into daughter plates using a Tecan EVO robot. Organism suspensions were adjusted to a 0.5 McFarland standard and further diluted to yield a final inoculum between 3×10^5 and 7×10^5 colony-forming units (CFU)/mL. Bacterial inocula were made in sterile, cation adjusted Mueller-Hinton Broth (Beckton Dickinson). An inoculum volume of 1.1× concentration of 90 uL was added to wells (using a Tecan EVO robot). All inoculated microdilution plates were incubated in ambient air at 35° C. for 18-24 hours.
(§2) Following the procedure from Example 103, MICs were determined for several beta-lactams in presence of a fixed concentration (4 μg/mL) of exemplar compounds (Table 3) against 3 Enterobacteriaceae strains.

[2] = test system: Klebsiella pneumoniae SHV-18, OXA-2, OKP-6 (ATCC 700603); experiment: as above; format: cell-based; details: for MIC: Klebsiella pneumoniae, ATCC700603, read-out: MIC of beta-lactam alone; for MIC / MIC of beta-lactam alone: no BLI; for MIC / MIC of cefpodoxime in presence of BLI / MIC of beta-lactam alone: K. pneumoniae SHV-18, OXA-2, OKP-6 (ATCC 700603); for MIC of cefpodoxime in presence of BLI: BLI at fixed 4 μg/mL
Procedure: as §1, §2

[3] = test system: E. coli WT (ATCC 25922); experiment: as above; format: cell-based; details: for MIC: Escherichia coli, ATCC25922, no BLI, read-out: MIC of beta-lactam alone; for MIC of beta-lactam alone: no BLI
Procedure: as §1, §2

[4] = target: TEM-1 (Class A beta-lactamase) (Escherichia coli, UniProt P62593); experiment: Inhibition of beta-lactamase enzymes (nitrocefin hydrolysis), TEM-1; format: biochemical; details: read-out: Class A TEM-1 60 min IC50, nitrocefin 100 μM
TEM-1 (Class A beta-lactamase), sequence (P62593 whole entry, looked up, species assumed): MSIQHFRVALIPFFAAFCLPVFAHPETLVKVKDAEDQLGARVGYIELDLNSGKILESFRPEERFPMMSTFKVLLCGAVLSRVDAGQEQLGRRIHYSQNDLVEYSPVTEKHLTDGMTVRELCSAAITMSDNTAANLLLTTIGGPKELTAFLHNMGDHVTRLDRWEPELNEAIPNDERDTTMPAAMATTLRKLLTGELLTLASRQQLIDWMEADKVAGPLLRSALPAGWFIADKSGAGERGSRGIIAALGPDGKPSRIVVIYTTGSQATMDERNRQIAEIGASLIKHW
Procedure: (§3) A buffer consisting of 0.1 M sodium phosphate (pH 7.0), 10 mM NaHCO3, and 0.005% Triton X-100 was used for all enzymes. The chromogenic substrate nitrocefin (SynGene, Bangalore, India) was used at 100 μM. Enzyme activity was monitored by the 490 nm absorbance increase upon nitrocefin hydrolysis. Assays were performed in clear polystyrene 384-well plates (Greiner Bio-One, Monroe, N.C.). Absorbance was measured for 1 hour at 30-s intervals using a Spectramax absorbance plate reader (Molecular Devices, Sunnyvale, Calif.). Measurement of beta-lactamase inhibition by INHIBITOR employed serial 3-fold dilutions of the inhibitor in assay buffer, ranging from 100 μM to 62.7 pM. A background absorbance progress curve for a control lacking enzyme and inhibitor was subtracted from each progress curve.
(§4) The complete set of progress curves for one enzyme with all inhibitor concentrations was subjected to numerical integration with the program Kintek Global Kinetic Explorer (Kintek Corp, Snowshoe Pa.) to obtain a best-fit to the mechanism shown in Scheme 10.
(§5) where E, S, ES, P, I, and EI are the concentrations of the enzyme, nitrocefin, the enzyme-nitrocefin complex, the nitrocefin hydrolysis product, INHIBITOR, and the enzyme-INHIBITOR complex respectively. […] The values of k+2, k+3, and k−3 were fit. Concentration series offsets of the absorbance measurements were used to correct for slight absorbance baseline differences between wells. The parameter k+3 is equivalent to the second order rate constant kinact/Ki. In some cases, the inhibition was in rapid equilibrium on the experimental time scale, so that only the ratio k−3/k+3=Ki could be determined. Although k−3 represents reversal of inhibitor binding in Scheme 10, hydrolysis of the enzyme-inhibitor complex could not be excluded based on kinetic measurements.
(§6) Best-fit absorbance values from the above procedure at each time point for each compound concentration were exported to Excel.
(§7) where A is the best-fit absorbance without inhibitor and Ainhib is the best-fit absorbance in the presence of the inhibitor.
(§8) where [I] is the inhibitor concentration and n is the Hill coefficient. The Excel add-in XLfit (ID Business Solutions) was used for nonlinear regression.

[5] = target: OXA-48 (Class D beta-lactamase) (Klebsiella pneumoniae, UniProt Q6XEC0); experiment: Inhibition of beta-lactamase enzymes (nitrocefin hydrolysis), OXA-48; format: biochemical; details: read-out: Class D OXA-48 60 min IC50, nitrocefin 100 μM
OXA-48 (Class D beta-lactamase), sequence (Q6XEC0 whole entry, looked up, species assumed): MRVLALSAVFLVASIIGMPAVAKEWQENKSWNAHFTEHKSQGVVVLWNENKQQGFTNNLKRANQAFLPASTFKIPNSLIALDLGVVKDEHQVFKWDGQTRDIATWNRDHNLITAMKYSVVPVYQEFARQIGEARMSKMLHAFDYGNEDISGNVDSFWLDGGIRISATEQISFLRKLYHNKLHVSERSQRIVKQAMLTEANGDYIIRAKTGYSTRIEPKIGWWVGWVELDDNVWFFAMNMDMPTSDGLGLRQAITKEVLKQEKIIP
Procedure: as §3, §4, §5, §6, §7, §8

[6] = test system: E. coli ARC2687 (AmpC, CTX-M-14); experiment: Mouse neutropenic thigh infection model, oral efficacy of cefpodoxime proxetil with Example 35; format: in vivo
Procedure: The oral in vivo efficacy of Example 35 was evaluated in combination with cefpodoxime proxetil in a mouse neutropenic thigh infection model versus a relevant clinical isolate. […] CD-1 mice (Charles River, Wilmington US) were housed in shoebox type cages with contact bedding and acclimated to the facility for a minimum of 2 days prior to use. The animal room was maintained at 70° F., with 50+/−10% relative humidity and a 12-hour light/dark cycle. The study was conducted using an IACUC-approved protocol in accordance with Title 9 of the Code of Federal Regulations. Animals were rendered neutropenic with two intraperitoneal doses of cyclophosphamide (150 mg/kg—4 days and 100 mg/kg—1 day prior to infection (Gerber et al. (1983) J Infect Dis 147(5); 910-917)). Animals were infected via an intramuscular challenge of ˜1×10^6 CFU administered within 100 μL of 0.9% saline. The inoculum was prepared from a 25 mL overnight culture of E. coli ARC 2687 in tryptic soy broth media. Following an OD600 determination, the inoculum was diluted in 0.9% saline to a concentration of […] prior to inoculation into the left and right thigh. Oral therapy with cefpodoxime proxetil alone and in combination with Example 35 was initiated 2 hours post bacterial challenge. Doses were suspended in 0.5% HPMC/0.1% Tween 80 and administered by oral gavage at a dose volume of 10 mL/kg. A terminal endpoint was obtained at 24 hr to determine bacterial counts in thigh tissue (CFU/gm). Animals were ethically euthanized, thighs were asceptically removed, weighed and homogenized in 1 mL of saline. Bacterial burden enumeration of tissue homogenate was performed by serial dilution on tryptic soy agar plates which were incubated overnight at 37° C. prior to colony (CFU) counting. The lower limit of detection was ˜2.6 log10 CFU/gm of tissue.

[7] = Stability/conversion of esters in human liver S9; format: in vitro ADME; details: liver S9, pH 7.4, read-out: T1/2 Human Liver S9
Procedure: (§9) The human intestinal S9 with the absence of PMSF, human liver S9, rat intestinal S9, and rat liver S9 preparations were obtained from Xenotech (Lenexa, Kans.). The 500-μL incubation solution contained 0.8 mg/mL of enzyme (or no enzyme for buffer stability), 10 μM of test compounds in 100 mM of HEPES buffer, pH 7.4. The hydrolysis reactions were conducted in a 1-mL glass insert (Analytical Sales, Pompton Plains, N.J.) in a shake water bath at 37° C. At 0, 2, 5, 10, 15, 30 and 60 min, the reaction was terminated by pipetting 50 μL incubate to a 96 DeepWell plate (Thermo Fisher Scientific, Rochester, N.Y.) containing 100 μL of acetonitrile with 250 ng/mL of Carbutamide (Sigma-Aldrich, St. Louis, Miss.) as the internal standard. The crashed solutions were then vortexed well followed by centrifuge at 4000 rpm for 15 min at 4° C. The extract was transferred to a new 96 DeepWell plate for LC-MS/MS analysis.
(§10) LC-MS/MS analysis was done using an AB Sciex QTrap 6500 mass spectrometer under positive ionization mode, coupled to a Schimadzu Nexera LC system.
(§11) A Waters Atlantis T3 (3 μm, 3.0×50 mm) column was used for separation. The mobile phase consisted 0.1% formic acid in water (A) and 0.1% formic acid in acetonitrile (B) with a flow rate set at 1.2 mL/min. For the prodrug analysis, the Multiple Reaction Monitoring (MRM) specific for each compound was set up so that both prodrug and its hydrolyzed active can be monitored simultaneously.
(§12) Half-lives listed are based on disappearance of starting ester.

[8] = Stability/conversion of esters in human intestinal S9; format: in vitro ADME; details: intestinal S9 (without PMSF), pH 7.4, read-out: T1/2 Human Intestinal S9
Procedure: as §9, §10, §11, §12

[9] = Stability/conversion of esters in rat intestinal S9; format: in vitro ADME; details: intestinal S9, pH 7.4, read-out: T1/2 Rat Intestinal S9
Procedure: as §9, §10, §11, §12

[10] = Stability in pH 7.4 buffer (no enzyme); format: physicochemical; details: HEPES buffer without enzyme, read-out: T1/2 pH 7.4 Buffer
Procedure: as §9, §10, §11, §12

[11] = Stability/conversion of esters in rat liver S9; format: in vitro ADME; details: liver S9, pH 7.4, read-out: T1/2 Rat Liver S9
Procedure: as §9, §10, §11, §12

[12] = BLI at fixed 4 μg/ml, K. pneumoniae ATCC 700603

SMILES: CC1=C[C@@H]2CN(C(=O)N2O[C@@H](F)C(=O)O)[C@@H]1C(=O)NCCNS(N)(=O)=O [Example 75, (2S)-2-fluoro-2-[[(2S,5R)-3-methyl-7-oxo-2-[2-(sulfamoylamino)ethyl-carbamoyl]-1,6-diazabicyclo[3.2.1]oct-3-en-6-yl]oxy]acetic acid lithium salt]
MIC of cefpodoxime in presence of BLI [2]: 0.125 µg/mL
IC50 [4]: 83 nM
IC50 [5]: 420 nM

SMILES: CC1=C[C@@H](C(N)=O)N2C[C@@H]1N(OCC(=O)O)C2=O [Example 93, 2-(((2S,5R)-2-carbamoyl-4-methyl-7-oxo-1,6-diazabicyclo[3.2.1]oct-3-en-6-yl)oxy)acetic acid lithium salt]
MIC of cefixime in presence of BLI ([1]; BLI at fixed 4 μg/ml): ≤0.06 µg/mL
MIC of faropenem in presence of BLI ([1]; BLI at fixed 4 μg/ml): ≤0.06 µg/mL
MIC of tebipenem in presence of BLI ([1]; BLI at fixed 4 μg/ml): ≤0.06 µg/mL
MIC of cefpodoxime in presence of BLI ([2]; lithium salt): 0.125 µg/mL
MIC of cefixime in presence of BLI [2, 12]: 0.125 µg/mL
MIC of faropenem in presence of BLI [2, 12]: 1 µg/mL
MIC of tebipenem in presence of BLI [2, 12]: ≤0.06 µg/mL
MIC of cefixime in presence of BLI ([3]; BLI at fixed 4 μg/ml): ≤0.06 µg/mL
MIC of faropenem in presence of BLI ([3]; BLI at fixed 4 μg/ml): ≤0.06 µg/mL
MIC of tebipenem in presence of BLI ([3]; BLI at fixed 4 μg/ml): ≤0.06 µg/mL
IC50 [4]: 150 nM
IC50 [5]: 53 nM

SMILES: COCC1=C(C(=O)OC(C)OC(=O)OC(C)C)N2C(=O)[C@@H](NC(=O)/C(=N\OC)c3csc(N)n3)[C@H]2SC1 (stereo partly drawn) [Cefpodoxime proxetil, cefpodoxime proxetil, reference compound]
log10CFU/gm thigh ([6]; cefpodoxime proxetil alone 50 mg/kg PO/q6h, mouse neutropenic thigh, E. coli ARC2687): 10.24 log10CFU/gm thigh
CFU Change from 26 hr ([6]; cefpodoxime proxetil alone 50 mg/kg PO/q6h, relative to 26 hr growth control): −0.62 log10 CFU/gm
CFU Change from 2 hr ([6]; cefpodoxime proxetil alone 50 mg/kg PO/q6h, relative to initiation of therapy): +3.97 log10 CFU/gm
growth of bacterial burden in thighs after 24 hours of therapy ([6]; cefpodoxime proxetil alone at 50 mg/kg q6h, oral, neutropenic CD-1 mice): greater than 3 log10 CFU/gm

SMILES: C=CC1=C(C(=O)O)N2C(=O)[C@@H](NC(=O)/C(=N\OCC(=O)O)c3csc(N)n3)[C@H]2SC1 [Cefixime, cefixime, reference compound]
MIC of beta-lactam alone [1]: >64 µg/mL
MIC of beta-lactam alone [2]: 8 µg/mL
MIC of beta-lactam alone [3]: 0.5 µg/mL

SMILES: CCOC(=O)C(F)(F)ON1C(=O)N2C[C@H]1C(C)=C[C@H]2C(N)=O [Example 90, ethyl 2-(((2S,5R)-2-carbamoyl-4-methyl-7-oxo-1,6-diazabicyclo[3.2.1]oct-3-en-6-yl)oxy)-2,2-difluoroacetate]
half-life at 10 μM [7]: 0.7 min
half-life at 10 μM [8]: 1 min
half-life at 10 μM [9]: 3.3 min
half-life at 10 μM [10]: 2.9 min
half-life at 10 μM [11]: 0.7 min

Results, then the compound that gave them:

MIC [1]: 8 µg/mL
MIC [2]: 8 µg/mL
MIC [3]: 0.5 µg/mL
SMILES: C[C@@H](O)[C@H]1C(=O)N2C(C(=O)O)=C([C@H]3CCCO3)S[C@H]12 [Faropenem, faropenem, reference compound]

MIC of beta-lactam alone [1]: 4 µg/mL
MIC of beta-lactam alone [2]: 32 µg/mL
MIC of beta-lactam alone [3]: 1 µg/mL
SMILES: CC1(C)[C@H](NC(=O)/C(=N\OCC(=O)O)c2csc(N)n2)C(=O)N1OS(=O)(=O)O [Tigemonam, tigemonam, reference compound]

MIC [1]: 0.125 µg/mL
MIC [2]: 0.125 µg/mL
MIC [3]: ≤ 0.06 µg/mL
SMILES: C[C@@H](O)[C@H]1C(=O)N2C(C(=O)O)=C(SC3CN(C4=NCCS4)C3)[C@H](C)[C@H]12 [Tebipenem, tebipenem, reference compound]

MIC of beta-lactam alone [1]: >64 µg/mL
MIC of beta-lactam alone [2]: 32 µg/mL
MIC of beta-lactam alone [3]: 4 µg/mL
SMILES: CO/N=C(\C(=O)N[C@@H]1C(=O)N2C(C(=O)O)=C(COC(N)=O)CS[C@H]12)c1ccco1 [Cefuroxime, cefuroxime, reference compound]

MIC of beta-lactam alone [1]: >64 µg/mL
MIC of beta-lactam alone [2]: 32 µg/mL
MIC of beta-lactam alone [3]: 2 µg/mL
SMILES: N[C@@H](C(=O)N[C@@H]1C(=O)N2C(C(=O)O)=C(Cl)CC[C@H]12)c1ccccc1 [Loracarbef, loracarbef, reference compound]
